Laboratory results taken from patent US4282215A, “Analgesic mixture of nalbuphine and acetylsalicylic acid, derivative or salt thereof” (E. I. Du Pont de Nemours and Company, priority 1980, dated 1981).
Structures can show the parent of a compound that is named as a salt.

Tests used:
[1] = system: phenyl-p-benzoquinone induced writhing in mice; assay: mouse antiphenylquinone writhing test at 20 minutes, oral nalbuphine.HCl / aspirin suspension (Method 1); format: in vivo, mouse (Male CF1)
Procedure: (§1) Male CF1 mice obtained from Charles River Breeding Laboratories, fasted for 16-22 hours, and weighing 18-22 g at the time of testing are used throughout. All mice are dosed sequentially by the oral route with suspensions of acetylsalicylic acid and/or of nalbuphine solutions (Method 1) or of calcium acetylsalicylate (calcium aspirin) and/or of nalbuphine solutions (Method 2). In each case the aspirin component is calculated as the equivalent free acid content, and nalbuphine is calculated as the hydrochloride salt. A dosing volume of 10 ml/kg is used for each sequential solution or suspension. All doses are coded and the test is performed under a code not known to the observer.
A stock suspension of aspirin is prepared by mixing 2.016 gm aspirin with 40 ml of an aqueous vehicle containing 2% by volume of Tween 80®, a pharmacological dispersant manufactured by Fisher Scientific Company and containing 100% polysorbate 80, and 1% by weight of Methocel® MC powder, a pharmacological suspending agent manufactured by DOW Chemical Company and containing 100% methylcellulose, in distilled water. The mixture is sonicated at 150 watts for 10-15 seconds with an ultrasound system, then shaken for 1 hour at 280 oscillations/minute with 15-20 gm of glass beads. The resultant suspension contains 50.4 mg/ml of aspirin; all dosing suspensions are prepared by dilution of the stock suspension with the Methocel®/Tween 80® vehicle; the vehicle control is Methocel®/Tween 80®. All suspensions are used within two hours of preparation, then discarded.
Stock solutions of nalbuphine.HCl are prepared by dissolving dry nalbuphine hydrochloride powder with distilled water. All dosing solutions are prepared by dilution of the stock solutions with distilled water; the vehicle control is distilled water.
(§2) A standard procedure for detecting and comparing the analgetic activity of different classes of analgesic drugs for which there is a good correlation with human analgetic activity is the prevention of phenyl-p-benzoquinone induced writhing in mice [H. Blumberg et al., Proc. Soc. Exp. Biol. Med., 118, 763-766 (1965)].
(§3) Mice, intubated with various doses of nalbuphine.HCl, aspirin suspensions (Method 1), calcium aspirin solution (Method 2), or immediately sequential doses of nalbuphine.HCl and of the aspirin preparations as defined further, or of the respective vehicles, are injected intraperitoneally with a standard challenge dose of phenyl-p-benzoquinone 5 min. prior to a designated observation period. The phenyl-p-benzoquinone is prepared as a 0.1 mg/ml solution in 5% by volume of ethanol in water; the writhing dose is 1.25 mg/kg injected at a volume of 0.25 ml/20 g. For scoring purposes a "writhe" is indicated by whole body stretching or contraction of the abdomen during a 10 min. observation period beginning 5 min. after receiving the phenyl-p-benzoquinone dose. Each mouse is used only once, then discarded.
(§4) All ED50 values and their 95% confidence limits are determined numerically by the methods of Thompson [W. F. Thompson, Bacteriological Rev., 11, 115-145 (1947)], Litchfield and Wilcoxon [J. T. Litchfield, Jr. and F. Wilcoxon, J. Pharm. Exp. Ther., 96, 99-113 (1949)], or Finney [D. J. Finney, "Probit Analysis," third edition, Cambridge University Press, Cambridge, England, (1971)].
Rev., 9, 237-242 (1957)] in FIG. 1. […] In the isobolographic figures, the analgetic effects of nalbuphine alone are presented on the Y axis and of aspirin alone (or calcium aspirin, expressed as aspirin equivalent dosages) on the X axis. The dotted lines radiating from the origin represent the fixed dosage ratios of nalbuphine.HCl:aspirin in the ranges of 1:2.44 to 1:60.9 and 1:1.76 to 1:61.7 for FIGS. 1 and 2, respectively. […] The arrows extending above and below each ED50 point represent the 95% confidence limits of the ED50's. […]

[2] = system: phenyl-p-benzoquinone induced writhing in mice; assay: mouse antiphenylquinone writhing test at 40 minutes, oral nalbuphine.HCl / calcium aspirin (Method 2); format: in vivo, mouse (Male CF1)
Procedure: as §1
A stock solution of calcium aspirin is prepared by mixing 4.032 gm of aspirin and 1.120 gm of precipitated calcium carbonate with 50 ml of distilled water at 40°-50° C. until the solids are completely dissolved, then diluting to 60 ml with distilled water at ambient temperature to obtain a solution containing 67.2 mg/ml of aspirin equivalent. All dosing solutions are prepared by dilution of the stock solution with distilled water; the vehicle control is distilled water. All solutions are used within two hours of preparation, then discarded.
Stock solutions of nalbuphine.HCl are prepared as described for Method 1.
as §2, §3, §4
Rev., 9, 237-242 (1957)] in FIG. 1. […] In the isobolographic figures, the analgetic effects of nalbuphine alone are presented on the Y axis and of aspirin alone (or calcium aspirin, expressed as aspirin equivalent dosages) on the X axis. The dotted lines radiating from the origin represent the fixed dosage ratios of nalbuphine.HCl:aspirin in the ranges of 1:2.44 to 1:60.9 and 1:1.76 to 1:61.7 for FIGS. 1 and 2, respectively. […] The arrows extending above and below each ED50 point represent the 95% confidence limits of the ED50's.
The solid line connecting the ED50 dosages of nalbuphine (alone) and aspirin (alone) represents the "ED50 addition line," which indicates the expected location of the ED50's for nalbuphine and aspirin combinations if simple additivity were to describe their combined effects. The 95% confidence range for the ED50 addition line is shown by the area between the broken lines above and below the ED50 addition line. […]

## CC(=O)Oc1ccccc1C(=O)O [Aspirin, acetylsalicylic acid]
[1]; N = 24 mice/dose
  ED50 at 20 MIN., Aspirin (component): 206 mg/kg
[1]; nalbuphine.HCl 0, aspirin 63 mg/kg
  % MICE BLOCKED: 8.3%
[1]; nalbuphine.HCl 0, aspirin 126 mg/kg
  % MICE BLOCKED: 37.5%
[1]; nalbuphine.HCl 0, aspirin 252 mg/kg
  % MICE BLOCKED: 58.3%
[1]; nalbuphine.HCl 0, aspirin 504 mg/kg
  % MICE BLOCKED: 79.2%

## Oc1ccc2c3c1O[C@H]1[C@@H](O)CC[C@@]4(O)[C@@H](C2)N(CC2CCC2)CC[C@]314 [Nalbuphine . HCl, (-)17-(cyclobutylmethyl)-4,5α-epoxymorphinan-3,6α,14-triol]
[1]; N = 24 mice/dose
  ED50 at 20 MIN., Nalbuphine . HCl (component): 26.1 mg/kg
[1]; nalbuphine.HCl 5.18 mg/kg, aspirin 0
  % MICE BLOCKED: 0%
[1]; nalbuphine.HCl 10.4 mg/kg, aspirin 0
  % MICE BLOCKED: 16.7%
[1]; nalbuphine.HCl 20.7 mg/kg, aspirin 0
  % MICE BLOCKED: 50.0%
[1]; nalbuphine.HCl 41.4 mg/kg, aspirin 0
  % MICE BLOCKED: 62.5%
[2]; N = 54 mice/dose
  ED50 at 40 MIN., Nalbuphine . HCl (component): 42.6 mg/kg
[2]; nalbuphine.HCl 5.45 mg/kg alone
  % MICE BLOCKED: 13.0%
[2]; nalbuphine.HCl 10.9 mg/kg, aspirin 0
  % MICE BLOCKED: 16.7%
[2]; nalbuphine.HCl 21.8 mg/kg, aspirin 0
  % MICE BLOCKED: 27.8%
[2]; nalbuphine.HCl 43.6 mg/kg, aspirin 0
  % MICE BLOCKED: 50.0%
[2]; nalbuphine.HCl 87.2 mg/kg, aspirin 0
  % MICE BLOCKED: 74.1%

## CC(=O)Oc1ccccc1C(=O)O [calcium aspirin, calcium acetylsalicylate]
[2]; N = 54 mice/dose
  ED50 at 40 MIN., Aspirin (component; calcium aspirin as equivalent free aspirin): 171 mg/kg
[2]; nalbuphine.HCl 0, aspirin equiv. 48 mg/kg
  % MICE BLOCKED: 7.4%
[2]; nalbuphine.HCl 0, aspirin equiv. 96 mg/kg
  % MICE BLOCKED: 13.0%
[2]; nalbuphine.HCl 0, aspirin equiv. 192 mg/kg
  % MICE BLOCKED: 63.0%
[2]; nalbuphine.HCl 0, aspirin equiv. 384 mg/kg
  % MICE BLOCKED: 87.0%
